Assay results from patent US8658383B2, “Sweet taste receptor-expressing construct, cell body expressing the same, and utilization thereof” (T. Hasegawa Co., Ltd., priority 2009, dated 2014).
Residues, ends and D or L forms follow the SMILES beside them.

Target: T1, human sweet taste receptor (hT1R2+hT1R3) (Homo sapiens, UniProt Q7RTX0+Q8TE23)
T1 sequence (Q8TE23 20-839): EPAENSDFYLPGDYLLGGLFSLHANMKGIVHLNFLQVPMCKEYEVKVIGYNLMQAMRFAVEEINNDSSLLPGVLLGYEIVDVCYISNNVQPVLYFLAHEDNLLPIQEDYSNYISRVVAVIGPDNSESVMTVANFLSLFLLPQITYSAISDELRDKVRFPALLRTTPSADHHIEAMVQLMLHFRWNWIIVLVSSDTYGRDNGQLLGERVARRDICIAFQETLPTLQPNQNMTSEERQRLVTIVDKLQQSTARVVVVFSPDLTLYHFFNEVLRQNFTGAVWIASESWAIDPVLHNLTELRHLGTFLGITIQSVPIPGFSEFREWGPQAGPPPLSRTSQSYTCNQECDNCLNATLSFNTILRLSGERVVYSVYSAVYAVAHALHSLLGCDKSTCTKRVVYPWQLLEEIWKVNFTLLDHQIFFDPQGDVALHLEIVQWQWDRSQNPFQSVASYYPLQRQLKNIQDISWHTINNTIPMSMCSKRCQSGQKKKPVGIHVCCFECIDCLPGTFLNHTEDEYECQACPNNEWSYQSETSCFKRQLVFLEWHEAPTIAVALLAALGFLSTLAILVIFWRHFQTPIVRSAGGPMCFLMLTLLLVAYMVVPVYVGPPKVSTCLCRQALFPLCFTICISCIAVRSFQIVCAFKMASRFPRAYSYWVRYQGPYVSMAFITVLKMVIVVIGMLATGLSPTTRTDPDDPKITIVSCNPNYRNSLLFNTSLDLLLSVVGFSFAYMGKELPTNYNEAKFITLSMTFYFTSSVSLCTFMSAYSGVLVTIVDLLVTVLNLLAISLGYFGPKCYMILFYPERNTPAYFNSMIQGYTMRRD
T1 sequence (Q7RTX0 21-852): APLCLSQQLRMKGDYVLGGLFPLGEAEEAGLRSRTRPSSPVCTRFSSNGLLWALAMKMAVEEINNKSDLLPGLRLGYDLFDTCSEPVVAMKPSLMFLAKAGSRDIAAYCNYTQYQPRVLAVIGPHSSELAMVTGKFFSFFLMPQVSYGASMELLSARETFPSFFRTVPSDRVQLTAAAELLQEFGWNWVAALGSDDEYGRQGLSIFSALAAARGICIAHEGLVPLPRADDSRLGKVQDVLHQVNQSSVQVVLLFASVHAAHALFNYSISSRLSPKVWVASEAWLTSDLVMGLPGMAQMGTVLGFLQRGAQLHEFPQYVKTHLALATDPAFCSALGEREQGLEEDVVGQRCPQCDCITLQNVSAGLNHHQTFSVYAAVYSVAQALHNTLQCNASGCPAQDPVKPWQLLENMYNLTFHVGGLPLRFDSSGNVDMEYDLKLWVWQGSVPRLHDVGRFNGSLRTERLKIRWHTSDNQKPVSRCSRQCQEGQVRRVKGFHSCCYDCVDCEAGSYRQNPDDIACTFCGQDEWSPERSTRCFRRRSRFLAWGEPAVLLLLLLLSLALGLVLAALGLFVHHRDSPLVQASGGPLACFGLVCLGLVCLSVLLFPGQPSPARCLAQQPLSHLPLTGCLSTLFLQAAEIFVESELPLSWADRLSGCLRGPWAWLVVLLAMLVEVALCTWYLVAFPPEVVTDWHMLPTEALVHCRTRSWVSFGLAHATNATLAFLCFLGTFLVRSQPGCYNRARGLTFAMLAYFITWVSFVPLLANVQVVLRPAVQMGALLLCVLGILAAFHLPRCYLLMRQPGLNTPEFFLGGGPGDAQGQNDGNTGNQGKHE
Experiment: Automated fluorescent calcium imaging (Fluo-4 AM, FlexStation 3) of cultured cell strain (A)
Format: cell-based
Parameters: The sweet taste receptor subunits T1R2 and T1R3 include an entire part of each subunit
Details: Average ± S.E., n = 2
Description: Automated fluorescent imaging using FlexStation 3 (Molecular Devices) can be performed, for example, according to the following procedure.
First, cells are suspended in a low glucose ([…]) DMEM medium from which hygromycin B has been removed, and each 70 to 80 thousands of cells are seeded on each well of a 96-well plate (Corning, CellBIND Surface).
Then, after cultured at 37° C. for 24 hours, a medium is removed and replaced with a suitable amount of a HEPES (2-[4-(2-hydroxyethyl)-1-piperazinyl]ethanesulfonic acid) buffer, and a HEPES buffer containing a fluorescent calcium indicator (Fluo-4 AM attached to Molecular Devices, FLIPR Ca 4 Assay Kit) is further added. In order to facilitate transfer into cells, a fat-soluble acetoxymethyl group has been introduced into the fluorescent indicator Fluo-4 (excitation wavelength: 495 nm, fluorescent wavelength: 518 nm), and when it is added to a medium, it is easily taken into cells, and is hydrolyzed with an esterase in cells. Hydrolyzed Fluo-4 becomes difficult to be permeated through a cell membrane, and is diffused into cells to form a complex with calcium, emitting intense fluorescence. In a 96-well plate for fluorescent observation, there are a plastic bottom and a film bottom. Since a plate of the plastic bottom is satisfactory in adherability and growth of cells, it is used at a simultaneous assay using a multiplate reader for observing an entire well. However, since a plate of this plastic bottom is bad in transmission property of a UV wavelength, and inhibits transmission of excited light of Fura-2, Fluo-4 is used.
Then, after incubated at 27 to 37° C. for 30 to 60 minutes, by adding thereto a sweet taste substance at a particular concentration or a solution of a sweet taste substance and a substance to be tested, taste stimulation is performed at 27 to 37° C.
A physiological response of the cultured cell strain (A) to sucrose stimulation was analyzed by automated fluorescent imaging.
The cultured cell strain (A) prepared in Example 4 was trypsinized, and suspended in the DMEM medium, a cell density was measured, and each about 80 thousand cells were seeded on each well of a 96-well plate (Corning, CellBIND Surface).
After cultured at 37° C. for 24 hours, the medium was removed and replaced with 50 μl of a HEPES buffer, and 50 μl of a HEPES buffer containing a fluorescent calcium indicator (Fluo-4 AM attached to Molecular Devices, FLIPR Ca 4 Assay Kit) was further added. Then, this was incubated at 27° C. for 45 minutes to prepare cells to be subjected to automated fluorescent imaging.
Then, to the cells was added a HEPES buffer containing sucrose, so that a final concentration of sucrose became a concentration described in Table 1, and sucrose stimulation was performed at 27° C.
The vertical axis of FIG. 15 is a maximum of change (AF) in a fluorescent intensity between immediately after stimulation and 100 seconds after stimulation, that is, a response intensity of cells, and the horizontal axis indicates a sucrose concentration (mM) expressed by logarithm.
A physiological response of the cultured cell strain (A) to D-phenylalanine stimulation was analyzed by automated fluorescent imaging.

Compound: COC(=O)[C@H](Cc1ccccc1)NC(=O)[C@@H](N)CC(=O)O [aspartame] (H-Asp-Phe-OMe)
- Change amount of fluorescent intensity (ΔF) (aspartame 0.04 mM): 3.0 ± 0.1
- Change amount of fluorescent intensity (ΔF) (aspartame 0.16 mM): 4.4 ± 1.1
- Change amount of fluorescent intensity (ΔF) (aspartame 0.31 mM): 5.2 ± 0.4
- Change amount of fluorescent intensity (ΔF) (aspartame 0.63 mM): 12.3 ± 1.7
- Change amount of fluorescent intensity (ΔF) (aspartame 1.25 mM): 27.9 ± 1.9
- Change amount of fluorescent intensity (ΔF) (aspartame 2.50 mM): 31.2 ± 0.7
